For this assay, the target named is T1, human Fatty Acid Synthase (Homo sapiens, UniProt P49327).
T1 construct: made in house
Description: Human FAS enzyme assay (decrease in NADPH fluorescence). Type of assay: biochemical. The following applies: for inhibition at 100 µM: % inhibition at a concentration of 100 μmolar; for IC50, inhibition of human Fatty Acid Synthase: FAS enzyme assay, IC50 from fitted sigmoid curves. How it is done:
Human and Rat FAS Enzyme Assay.
Fatty acid synthase is an enzyme complex that harbours seven enzymatic activities catalysing the reductive synthesis of long chain fatty acids from acetyl CoA and malonyl CoA to palmitate. When acetyl CoA and malonyl CoA are forming palmitate NADPH is consumed forming NADP. Since NADPH is fluorescent but not NADP the reaction can be measured by analysing the decrease in fluorescence.
Compounds were added to a black 384 well plate (Matrix) in a volume of 5 μl consisting of 20% DMSO and 80% Tris buffer pH 7.5, at a top concentration of 1 mM. NADPH, 30 μl of 166.6 μM, formulated in assay buffer (0.1M Tris ph7.5, 0.1 mM EDTA, 1 mM glutathione, 0.05% BSA), was then added to all of the wells of the plate. Fatty acid synthase Human or rat enzyme (0.4 μg, produced in house), dissolved in 20 mM Tris/HCl pH 7.5, 5 mM BOG, 1 mM TCEP, 10% glycerol, 1 mM EDTA, 150 mM NaCl, was then added to the plate in a volume of 10 μl. Enzyme was added to all but the last two columns of the plate, to which, 10 μl of assay buffer was added (0.1M Tris ph7.5, 0.1 mM EDTA, 1 mM glutathione, 0.05% BSA) to provide a no enzyme assay control. Following a 15-minute incubation period, at room temperature, the plates were read on an Envision plate reader using 340 nm excitation and 460 nm emission filters. This served as a time zero background read. Substrates (an equal mix of both malonyl and acetyl CoA) were then added to the plates in a total volume of 5 μl. The concentrations of malonyl and acetyl CoA in the mixture were 500 μM and 150 μM respectively. Both were prepared as 10 mM stock solutions in distilled water and were subsequently diluted to working concentrations in assay buffer. Plates were then incubated for a further 60 minutes, at room temperature, before being read again on the Envision reader using the same parameters as previously used. The data was analysed by subtracting the background time zero data from that generated following the final 60 minute incubate and the percent inhibition compared to the maximum and minimum assay controls was determined. Sigmoid curves were fitted using Origin 7.5 Client software and IC50 values were determined.

Experimental findings from patent US20090118332A1, “Therapeutic Agents - 551” (AstraZeneca AB, priority 2006, published 2009) are described below.

As a reminder, the inhibition is the drop in the measured response relative to a control, in per cent.

T1 sequence (P49327 whole entry): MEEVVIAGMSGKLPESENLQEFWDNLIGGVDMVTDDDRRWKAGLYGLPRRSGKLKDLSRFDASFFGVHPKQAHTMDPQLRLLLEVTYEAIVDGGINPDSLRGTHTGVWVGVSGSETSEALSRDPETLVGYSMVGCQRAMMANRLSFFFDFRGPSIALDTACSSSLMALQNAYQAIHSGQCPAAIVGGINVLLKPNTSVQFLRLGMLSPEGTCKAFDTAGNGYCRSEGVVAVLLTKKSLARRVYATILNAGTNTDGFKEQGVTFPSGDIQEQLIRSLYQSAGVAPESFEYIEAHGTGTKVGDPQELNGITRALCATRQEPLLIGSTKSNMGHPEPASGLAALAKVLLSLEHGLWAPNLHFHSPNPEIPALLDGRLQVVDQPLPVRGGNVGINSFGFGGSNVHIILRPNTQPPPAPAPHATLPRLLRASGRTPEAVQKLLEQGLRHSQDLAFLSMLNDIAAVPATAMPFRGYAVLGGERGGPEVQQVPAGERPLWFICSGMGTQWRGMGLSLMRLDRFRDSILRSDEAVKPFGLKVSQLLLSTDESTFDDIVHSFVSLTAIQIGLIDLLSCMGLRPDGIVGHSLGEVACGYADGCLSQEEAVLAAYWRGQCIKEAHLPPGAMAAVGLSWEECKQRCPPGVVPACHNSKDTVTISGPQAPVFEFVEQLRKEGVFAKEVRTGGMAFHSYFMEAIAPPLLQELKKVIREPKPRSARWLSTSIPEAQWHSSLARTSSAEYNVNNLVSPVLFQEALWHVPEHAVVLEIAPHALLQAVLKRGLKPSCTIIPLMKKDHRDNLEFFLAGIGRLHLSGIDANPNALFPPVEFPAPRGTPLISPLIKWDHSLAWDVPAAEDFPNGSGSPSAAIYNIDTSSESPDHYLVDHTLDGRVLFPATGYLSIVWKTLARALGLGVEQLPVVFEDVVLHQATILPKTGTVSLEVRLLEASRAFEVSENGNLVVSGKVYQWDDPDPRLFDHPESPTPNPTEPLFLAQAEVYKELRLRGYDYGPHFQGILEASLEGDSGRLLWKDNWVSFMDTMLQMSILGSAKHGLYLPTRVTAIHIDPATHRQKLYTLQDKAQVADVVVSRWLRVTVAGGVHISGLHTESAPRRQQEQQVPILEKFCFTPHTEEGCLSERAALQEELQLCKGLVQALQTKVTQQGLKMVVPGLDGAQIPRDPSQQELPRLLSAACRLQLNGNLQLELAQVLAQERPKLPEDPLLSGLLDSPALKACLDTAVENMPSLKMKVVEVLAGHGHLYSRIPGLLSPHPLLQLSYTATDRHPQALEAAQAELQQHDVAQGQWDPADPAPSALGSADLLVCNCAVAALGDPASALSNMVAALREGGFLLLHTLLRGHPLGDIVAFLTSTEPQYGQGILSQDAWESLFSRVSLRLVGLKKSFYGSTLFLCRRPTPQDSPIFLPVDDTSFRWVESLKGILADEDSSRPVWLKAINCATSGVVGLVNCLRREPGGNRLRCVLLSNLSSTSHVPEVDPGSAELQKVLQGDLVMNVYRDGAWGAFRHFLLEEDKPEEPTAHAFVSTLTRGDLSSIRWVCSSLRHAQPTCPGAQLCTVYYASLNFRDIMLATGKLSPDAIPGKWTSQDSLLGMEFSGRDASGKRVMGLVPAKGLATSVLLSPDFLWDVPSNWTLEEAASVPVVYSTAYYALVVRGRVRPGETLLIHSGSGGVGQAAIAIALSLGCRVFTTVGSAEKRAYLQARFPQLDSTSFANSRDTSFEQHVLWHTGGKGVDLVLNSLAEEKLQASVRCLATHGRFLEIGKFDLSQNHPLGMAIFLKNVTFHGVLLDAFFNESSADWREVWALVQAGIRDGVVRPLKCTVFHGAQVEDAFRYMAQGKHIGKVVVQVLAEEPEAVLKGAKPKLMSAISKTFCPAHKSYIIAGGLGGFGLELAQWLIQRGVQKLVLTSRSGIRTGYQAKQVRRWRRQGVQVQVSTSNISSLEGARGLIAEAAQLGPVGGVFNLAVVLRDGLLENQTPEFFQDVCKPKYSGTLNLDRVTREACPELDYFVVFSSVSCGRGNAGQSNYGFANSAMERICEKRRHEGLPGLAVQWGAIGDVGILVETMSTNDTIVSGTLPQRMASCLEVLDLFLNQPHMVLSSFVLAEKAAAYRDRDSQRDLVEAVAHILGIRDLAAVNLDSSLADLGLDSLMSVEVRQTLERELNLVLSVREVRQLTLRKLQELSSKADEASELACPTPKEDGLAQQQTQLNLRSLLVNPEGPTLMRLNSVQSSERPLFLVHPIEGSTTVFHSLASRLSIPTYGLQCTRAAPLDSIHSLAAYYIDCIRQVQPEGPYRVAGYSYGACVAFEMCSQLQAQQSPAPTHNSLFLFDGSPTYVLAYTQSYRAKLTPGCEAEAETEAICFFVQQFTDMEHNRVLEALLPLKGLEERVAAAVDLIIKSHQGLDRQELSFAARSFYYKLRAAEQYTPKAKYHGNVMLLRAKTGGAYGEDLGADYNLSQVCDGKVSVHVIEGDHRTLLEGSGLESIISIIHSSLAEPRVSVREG

On to `Cc1cccc(CNC(=O)Nc2cc(C(=O)N3CCC(c4ccc(C#N)cc4)CC3)ccc2C)c1` [Example 54, 3-[5-[4-(4-cyanophenyl)piperidine-1-carbonyl]-2-methyl-phenyl]-1-[(3-methylphenyl)methyl]urea], for which the inhibition at 100 µM was 92.2%. Take `CCCNC(=O)Nc1cc(C(=O)N2CCC(c3ccc(C#N)cc3)CC2)ccc1C` [Example 227, 3-[5-[4-(4-cyanophenyl)piperidine-1-carbonyl]-2-methyl-phenyl]-1-propyl-urea]: the inhibition at 100 µM is 90.1%. In the case of `Cc1ccc(C(=O)N2CCC(O)(c3ccccc3F)CC2)cc1NC(=O)NC(C)C` [1-[5-[4-(2-fluorophenyl)-4-hydroxypiperidine-1-carbonyl]-2-methylphenyl]-3-propan-2-ylurea], the “IC50, inhibition of human Fatty Acid Synthase” value is reported as “do not have IC50s in the range of about 0.001 μM to about 30 μM”. For the molecule `Cc1ccc(NC(=O)NCc2ccncc2)cc1C(=O)N1CCC(c2ccc(C#N)cc2)CC1` [Example 379, 1-[3-[4-(4-cyanophenyl)piperidine-1-carbonyl]-4-methylphenyl]-3-(pyridin-4-ylmethyl)urea], the inhibition at 100 µM is 73.3%. For the molecule `COC(=O)C(CCn1cnnn1)NC(=O)Nc1cc(C(=O)N2CCC(c3ccc(C#N)cc3)CC2)ccc1C` (stereo not shown) [Methyl 2-[[5-[4-(4-cyanophenyl)piperidine-1-carbonyl]-2-methylphenyl]carbamoylamino]-4-(tetrazol-1-yl)butanoate], the “IC50, inhibition of human Fatty Acid Synthase” value is recorded as “do not have IC50s in the range of about 0.001 μM to about 30 μM”. Turning to `CC(=O)N1CC[C@@H](NC(=O)Nc2cc(C(=O)N3CCC(c4ccc(C#N)cc4)CC3)ccc2C)C1` [Example 275, 3-[(3R)-1-acetylpyrrolidin-3-yl]-1-[5-[4-(4-cyanophenyl)piperidine-1-carbonyl]-2-methyl-phenyl]urea], the inhibition at 100 µM was 106%. With `Cc1ccc(C(=O)N2CCC(c3ccc(C#N)cc3)CC2)cc1NC(=O)N[C@H](C)c1ccccc1` [Example 106, 1-[5-[4-(4-cyanophenyl)piperidine-1-carbonyl]-2-methyl-phenyl]-3-[(1R)-1-phenylethyl]urea], the inhibition at 100 µM came to 90.3%. Same read-out and setting: the result for `Cc1ccc(C(=O)N2CCC(c3ccc(F)cc3)CC2)cc1NC(=O)NC1CCN(C(=O)OC(C)(C)C)C1` (stereo not shown) [Example 343, tert-butyl 3-[[5-[4-(4-fluorophenyl)piperidine-1-carbonyl]-2-methyl-phenyl]carbamoylamino]pyrrolidine-1-carboxylate] reads 93.6%; that for `Cc1ccc(C(=O)N2CCC(c3ccc(Cl)cc3)CC2)cc1NC(=O)NCc1ccccn1` [Example 355, 1-[5-[4-(4-chlorophenyl)piperidine-1-carbonyl]-2-methyl-phenyl]-3-(pyridin-2-ylmethyl)urea], 82.2%; that for `Cc1cc(C)c(C(=O)N2CCC(c3ccc(C#N)cc3)CC2)cc1NC(=O)NCc1ccccc1` [Example 12, 3-benzyl-1-[5-[4-(4-cyanophenyl)piperidine-1-carbonyl]-2,4-dimethyl-phenyl]urea], 84.6%. On the same count and under the same terms, the result for `Cc1ccc(C(=O)N2CCC(c3ccc(C#N)cc3)CC2)cc1NC(=O)N[C@@H](COC(C)(C)C)C(N)=O` [Example 78, (2S)-2-[[5-[4-(4-cyanophenyl)piperidine-1-carbonyl]-2-methyl-phenyl]carbamoylamino]-3-[(2-methylpropan-2-yl)oxy]propanamide] reads 85.7%.

For the molecule `Cc1ccc(C(=O)N2CCC(c3ccc(C#N)cc3)CC2)cc1NC(=O)NCC(N)=O` [Example 58, 2-[[5-[4-(4-cyanophenyl)piperidine-1-carbonyl]-2-methyl-phenyl]carbamoylamino]acetamide], the inhibition at 100 µM was 89.9%. With `N#Cc1ccc(C2CCN(C(=O)c3ccc(C(F)(F)F)c(NC(=O)NCc4ccccc4)c3)CC2)cc1` [Example 280, 1-benzyl-3-[5-[4-(4-cyanophenyl)piperidine-1-carbonyl]-2-(trifluoromethyl)phenyl]urea], the inhibition at 100 µM amounted to 90.6%.

As for `Cc1ccc(NC(=O)NCc2ccccn2)cc1C(=O)N1CCC(c2ccc(C#N)cc2)CC1` [Example 414, 1-[3-[4-(4-cyanophenyl)piperidine-1-carbonyl]-4-methylphenyl]-3-(pyridin-2-ylmethyl)urea], the inhibition at 100 µM came out at 83.6%.

In the case of `Cc1ccc(C(=O)N2CCC(c3ccc(C#N)cc3)CC2)cc1NC(=O)NC1CCN(S(C)(=O)=O)CC1` [Example 281, 1-[5-[4-(4-cyanophenyl)piperidine-1-carbonyl]-2-methyl-phenyl]-3-(1-methylsulfonyl-4-piperidyl)urea], the inhibition at 100 µM amounted to 99.7%.

Consider `COc1cc(CNC(=O)Nc2cc(C(=O)N3CCC(c4ccc(C#N)cc4)CC3)ccc2C)cc(OC)c1OC` [Example 44, 1-[5-[4-(4-cyanophenyl)piperidine-1-carbonyl]-2-methyl-phenyl]-3-[(3,4,5-trimethoxyphenyl)methyl]urea], for which the inhibition at 100 µM was 87.9%. In the case of `CCNC(=O)Nc1cc(C(=O)N2CCC(c3ccc(C#N)cc3)CC2)c(C)cc1C` [Example 410, 3-[5-[4-(4-cyanophenyl)piperidine-1-carbonyl]-2,4-dimethylphenyl]-1-ethylurea], the inhibition at 100 µM turned out to be 93.7%. On to `CC(=O)N[C@@H]1CCCC[C@@H]1NC(=O)Nc1cc(C(=O)N2CCC(c3ccc(C#N)cc3)CC2)ccc1C` (relative stereo) [Example 308, N-[(cis)-2-[[5-[4-(4-cyanophenyl)piperidine-1-carbonyl]-2-methyl-phenyl]carbamoylamino]cyclohexyl]acetamide], for which the inhibition at 100 µM amounted to 91.5%. On the same count and under the same terms, in the case of `CSc1ccc(C(=O)N2CCC(c3ccc(C#N)cc3)CC2)cc1NC(=O)NCc1ccccc1` [Example 363, 3-benzyl-1-[5-[4-(4-cyanophenyl)piperidine-1-carbonyl]-2-methylsulfanylphenyl]urea] it was 84.7%. In the case of `Cc1ccc(C(=O)N2CCC(c3ccc(C#N)cc3)CC2)cc1NC(=O)NCCc1cccnc1` [Example 66, 1-[5-[4-(4-cyanophenyl)piperidine-1-carbonyl]-2-methyl-phenyl]-3-(2-pyridin-3-ylethyl)urea], the inhibition at 100 µM is 91.5%. The same measure, in the same setting: the result for `CSc1ccc(NC(=O)NC(C)C)cc1C(=O)N1CCC(c2ccc(C#N)cc2)CC1` [Example 405, 3-[3-[4-(4-cyanophenyl)piperidine-1-carbonyl]-4-methylsulfanylphenyl]-1-propan-2-ylurea] reads 66.8%; that for `Cc1ccc(C(=O)N2CCC(c3ccc(C#N)cc3)CC2)cc1NC(=O)N(CCO)C(C)C` [Example 395, 3-[5-[4-(4-cyanophenyl)piperidine-1-carbonyl]-2-methylphenyl]-1-(2-hydroxyethyl)-1-propan-2-ylurea], 71.6%; that for `Cc1ccc(C(=O)N2CCC(c3ccc(C#N)cc3)CC2)cc1NC(=O)NC1CN(S(=O)(=O)N(C)C)C1` [Example 303, 1-[5-[4-(4-cyanophenyl)piperidine-1-carbonyl]-2-methyl-phenyl]-3-[1-(dimethylsulfamoyl)azetidin-3-yl]urea], 93.5%. Still for that read-out and setting: the result for `CCS(=O)(=O)N1CCCC(NC(=O)Nc2cc(C(=O)N3CCC(c4ccc(C#N)cc4)CC3)ccc2C)C1` (stereo not shown) [Example 297, 3-[5-[4-(4-cyanophenyl)piperidine-1-carbonyl]-2-methyl-phenyl]-1-(1-ethylsulfonyl-3-piperidyl)urea] reads 97.9%. In the case of `Cc1ccc(C(=O)N2CCC(c3ccc(C#N)cc3)CC2)cc1NC(=O)NCc1nnn[nH]1` [Example 82, 1-[5-[4-(4-cyanophenyl)piperidine-1-carbonyl]-2-methyl-phenyl]-3-(1H-tetrazol-5-ylmethyl)urea], the inhibition at 100 µM amounted to 82%. Same read-out and setting: in the case of `CCC(=O)N1CC[C@H](NC(=O)Nc2cc(C(=O)N3CCC(c4ccc(C#N)cc4)CC3)ccc2C)C1` [Example 220, 3-[5-[4-(4-cyanophenyl)piperidine-1-carbonyl]-2-methyl-phenyl]-1-[(3S)-1-propanoylpyrrolidin-3-yl]urea] it was 96.7%. `Cc1ccc(C(=O)N2CCC(c3ccc(C#N)cc3)CC2)cc1NC(=O)NCC1CCN(C)C1` (stereo not shown) [Example 268, 1-[5-[4-(4-cyanophenyl)piperidine-1-carbonyl]-2-methyl-phenyl]-3-[(1-methylpyrrolidin-3-yl)methyl]urea]: the inhibition at 100 µM is 90.1%. Consider `Cc1ccc(C(=O)N2CCC(c3ccc(C#N)cc3)CC2)cc1NC(=O)NCC(F)(F)F` [Example 168, 1-[5-[4-(4-cyanophenyl)piperidine-1-carbonyl]-2-methyl-phenyl]-3-(2,2,2-trifluoroethyl)urea], for which the inhibition at 100 µM came to 84.6%.
